Data: PMC5359624, “A structure- and chemical genomics-based approach for repositioning of drugs against VCP/p97 ATPase” (Scientific Reports, 2017)
Values joined by “and” are separate entries in the source; they are usually repeats but may differ in a detail not shown here. Identical values can stand only once. Residues, ends and D or L forms follow the SMILES beside them. *: point of attachment. Cbz = O=C(OCc1ccccc1)*

Legend:
VCP = test system: VCP; design: method as in PMID 23892893; details: read-out: Experimental IC50; cited from earlier work
WT VCP/p97 ATPase = WT VCP/p97 ATPase (Homo sapiens, UniProt P55072); assay: In vitro ATPase assay, WT VCP/p97; format: biochemical; details: 200 μM ATP, 8-dose titration
Source text: (§1) In order to test direct inhibition of VCP/p97 ATPase activity by these compounds, we performed in vitro ATPase assays of the five UPS and VCP/p97 perturbing compounds to evaluate their inhibitory activity against VCP/p97.

E578Q VCP/p97 ATPase = E578Q VCP/p97 ATPase (Homo sapiens, UniProt P55072, E578Q); assay: In vitro ATPase assay, E578Q (D2 Walker B mutant, D1-active); format: biochemical; details: for IC50: 200 μM ATP, 8-dose titration
Source text: as §1

[1] = cited from earlier work
E305Q VCP/p97 ATPase = E305Q VCP/p97 ATPase (Homo sapiens, UniProt P55072, E305Q); assay: In vitro ATPase assay, E305Q (D1 Walker B mutant, D2-active); format: biochemical; details: for IC50: 200 μM ATP, 8-dose titration
Source text: as §1

[2] = test system: UbG76V-GFP (p97-dependent substrate); assay: UbG76V-GFP degradation assay (dual-reporter HeLa cell line); format: cell-based; details: 160 min, HeLa dual-reporter cells
Procedure: (§2) First, the activities of these compounds against VCP/p97 in a cell-based degradation assay[31] were evaluated. For this purpose, we used a dual-reporter system to monitor the ubiquitin-proteasome system (UPS) and VCP/p97 function in mammalian cells. This system comprises an ubiquitin fusion degradation (UFD) reporter Ub^G76V-GFP and the oxygen-dependent degradation domain of HIF1α fused to luciferase (ODD-Luc), a non-ERAD substrate for proteasomal degradation. Measurement of GFP and luciferase activity in response to a treatment allows to assess the effect on p97-dependent and p97-independent proteolysis.
(§3) A dual-reporter stable HeLa cell line was generated to monitor UPS function in mammalian cells. A ubiquitin fusion degradation (UFD) reporter Ub^G76V-GFP and an oxygen-dependent degradation domain of HIF1α fused to luciferase (ODD-Luc). […] Cells were seeded on 384-well plates (3000 cells/well) and grown for 18 h. Cells were treated with modified DMEM (without phenol red, folic acid, riboflavin, and vitamin B12) containing MG132 (4 μM) for 1 h and washed twice with pre-warmed PBS. […] Plates were imaged on the ImageXpress Micro microscope (Molecular Devices) after 160 min. Luciferase activity were measured by adding D-Luciferin (10 μl of 2.5 mg/mL in PBS) into each well containing 38 μl of medium and incubated at room temperature for 10 min. Use Synergy Neo (BioTek) to read Luciferase signal.

[3] = test system: ODD-Luc (p97-independent proteasome substrate); assay: ODD-Luc degradation assay (dual-reporter HeLa cell line); format: cell-based; details: HeLa dual-reporter cells
Procedure: as §2, §3

[4] = design: method as in PMID 23245311; details: oral administration in mice; cited from earlier work
NSCLC cells = test system: NSCLC cells; design: method as in PMID 27333030; details: sub-micromolar concentrations; cited from earlier work
tumor growth = details: 50 mg/kg, mice; cited from earlier work

Chain of WT VCP/p97 ATPase (P55072 whole entry): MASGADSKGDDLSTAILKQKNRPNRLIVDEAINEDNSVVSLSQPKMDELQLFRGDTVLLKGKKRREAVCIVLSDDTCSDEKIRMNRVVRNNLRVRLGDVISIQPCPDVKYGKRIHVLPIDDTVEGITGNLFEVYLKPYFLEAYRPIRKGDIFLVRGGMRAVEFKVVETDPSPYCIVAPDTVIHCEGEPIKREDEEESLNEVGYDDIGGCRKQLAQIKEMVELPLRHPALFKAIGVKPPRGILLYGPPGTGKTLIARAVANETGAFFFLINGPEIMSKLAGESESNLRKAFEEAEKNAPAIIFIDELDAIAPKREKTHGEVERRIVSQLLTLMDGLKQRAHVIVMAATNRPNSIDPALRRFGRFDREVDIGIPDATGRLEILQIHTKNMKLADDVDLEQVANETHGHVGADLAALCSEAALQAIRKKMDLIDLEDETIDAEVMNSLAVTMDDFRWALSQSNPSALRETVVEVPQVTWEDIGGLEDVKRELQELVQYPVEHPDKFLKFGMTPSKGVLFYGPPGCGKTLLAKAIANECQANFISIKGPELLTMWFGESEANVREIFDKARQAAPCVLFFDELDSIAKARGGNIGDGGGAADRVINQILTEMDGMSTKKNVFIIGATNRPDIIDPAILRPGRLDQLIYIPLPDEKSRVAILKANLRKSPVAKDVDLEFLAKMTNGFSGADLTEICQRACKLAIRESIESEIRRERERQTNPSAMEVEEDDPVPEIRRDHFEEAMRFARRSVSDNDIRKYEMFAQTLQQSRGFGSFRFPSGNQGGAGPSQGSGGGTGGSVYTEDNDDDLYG
Chain of E578Q VCP/p97 ATPase (P55072 whole entry E578Q): as the sequence (P55072 whole entry) above, with E578Q counted along it
Chain of E305Q VCP/p97 ATPase (P55072 whole entry E305Q): as the sequence (P55072 whole entry) above, with E305Q counted along it

| Compound | IC50 (WT VCP/p97 ATPase) [µM] | IC50 (E578Q VCP/p97 ATPase) | IC50 (E305Q VCP/p97 ATPase) [µM] | IC50 ([2]; Homo sapiens) [µM] | IC50 ([3]; Homo sapiens) [µM] | further results |
| --- | --- | --- | --- | --- | --- | --- |
| NMS-249 |  |  |  |  |  | IC50 (VCP): 0.29 µM |
| Clc1ccccc1C(c1ccccc1)(c1ccccc1)n1ccnc1 [Clotrimazole] | 12 | 8 µM and 8.2 µM | 8 |  |  | water solubility [1]: poor |
| CC#CCC(C)[C@H](O)/C=C/[C@@H]1[C@H]2C/C(=C/CCCC(=O)O)C[C@H]2C[C@H]1O (stereo partly drawn) [Iloprost] |  |  |  | > 40 | > 40 |  |
| Cc1cc(OCc2nnc(SC3CCCC3)n2-c2cccnc2)ccc1-c1ccc(S(C)(=O)=O)cc1 [NMS-873] |  |  |  |  | > 40 | bioavailability [4]: modest; systemic exposure [4]: modest; IC50 [2]: 1.4 µM; IC50 (VCP): 0.03 µM |
| CC(C)C[C@@H](C=O)NC(=O)[C@H](CC(C)C)NC(=O)[C@H](CC(C)C)NC(=O)OCc1ccccc1 [MG132] (Cbz-Leu-Leu-Leu-aldehyde) |  |  |  | 1.2 | 4.4 |  |
| COc1ccc(CCN2CCC(Nc3nc4ccccc4n3Cc3ccc(F)cc3)CC2)cc1 [Astemizole] | 25 | > 30 µM | > 30 |  |  | sensitization of NSCLC cells to chemotherapy (NSCLC cells): sensitized NSCLC cells to chemotherapy; tumor growth inhibition (tumor growth): sufficient to inhibit tumor growth |
| CC(C)(C)NC(=O)[C@@H]1C[C@@H]2CCCC[C@@H]2CN1C[C@@H](O)[C@H](Cc1ccccc1)NC(=O)[C@H](CC(N)=O)NC(=O)c1ccc2ccccc2n1 [Saquinavir] | > 30 | > 30 µM | > 30 | 10.7 | 20.8 |  |
| O=C(Nc1ccc([N+](=O)[O-])cc1Cl)c1cc(Cl)ccc1O [Niclosamide] |  |  |  | > 40 | > 40 |  |
| c1ccc(CNc2nc(NCc3ccccc3)c3ccccc3n2)cc1 [DBeQ] | 3 | 11 µM | 5.5 |  |  | IC50 increase against the D2 mutant relative to wild-type VCP/p97 (E578Q VCP/p97 ATPase; E578Q vs WT): 3.7 fold; IC50 increase against the D1 mutant relative to wild-type VCP/p97 (E305Q VCP/p97 ATPase; E305Q vs WT): 1.8 fold |
| Ivermectin | > 30 | > 30 µM | > 30 |  |  | IC50 [2]: 9.7 µM; IC50 WT VCP/p97 ATPase activity (WT VCP/p97 ATPase): did not show activity; IC50 [3]: > 40 µM |
| CC(C)(C)c1ccc(C(=O)CCCN2CCC(OC(c3ccccc3)c3ccccc3)CC2)cc1 [Ebastine] |  |  |  |  |  | sensitization of NSCLC cells to chemotherapy (NSCLC cells): sensitized NSCLC cells to chemotherapy |
| NMS-862 |  |  |  |  |  | IC50 (VCP): 2.66 µM |
